US20220170081A1, “METHOD FOR DETECTING TARGET NUCLEIC ACID AND KIT” (CANON KABUSHIKI KAISHA, priority 2020, published 2022)

Columns and labels:
[1] = target: Alt-R A.s. Cas12a (Cpf1) Nuclease V3 (Acidaminococcus sp., UniProt U2UMQ6); settings: spermine 2.0 mM; NEBuffer 2.1; various concentrations of Tween 20 and BSA; FIG. 2A
Description: (§1) A ternary complex was formed by mixing 400-nM Cas12a, 500-nM crRNA, and a predetermined concentration of target DNA at a volume ratio of 1:1:2 and performing incubation at 37° C. for 30 to 60 minutes. Thereafter, in a 96-well plate (137101, Thermo Fisher Scientific), binding buffer, various additives, a reporter molecule, and water were added, the total volume was adjusted to 80 μL, and the fluorescence intensity was measured every 2 min at 37° C. for 1 to 2 hours by using a fluorescent plate reader Synergy MX (BioTec). Regarding the measurement wavelength, for HiLyte488, an excitation wavelength of 485±20 nm and a fluorescence wavelength of 528±20 nm were used. For the IDT reporter, an excitation wavelength of 535±20 nm and a fluorescence wavelength of 595±20 nm were used. For a reporter marked with Cy5 or Alexa Fluor 647, an excitation wavelength of 620±20 nm and a fluorescence wavelength of 680±20 nm were used.

[2] = target: Alt-R A.s. Cas12a (Cpf1) Ultra (Acidaminococcus sp., UniProt U2UMQ6, F870L/M537R); settings: spermine 2.0 mM; NEBuffer 2.1; various concentrations of Tween 20 and BSA; FIG. 2B
Description: as §1

[3] = system: EnGen Lba Cas12a (Cpf1); assay: Experiment of cleavage activity of Cas12a (trans-cleavage of fluorescent reporter molecule); format: biochemical; settings: for rising of fluorescence compared with no addition: addition concentration 12 mM; for addition concentration at which an effect of facilitating the reaction was observed: concentration changed between 0 to 12 mM, FIGS. 4A to 4E
Description: as §1, with “Thereafter,” for “A ternary complex was formed by mixing 400-nM Cas12a, 500-nM crRNA, and a predetermined concentration of target DNA at a volume ratio of 1:1:2 and performing incubation at 37° C. for 30 to 60 minutes. Thereafter,”
FIGS. 1A and 1B illustrate a change over time in the ratio of the fluorescence intensity of the IDT reporter to the fluorescence intensity of an internal standard dye Hilyte488.

[4] = pH of binding buffer when amino compounds were added; format: physicochemical; settings: FIG. 11
Description: Change in the pH when the concentration of each of spermidine·3HCl, spermine, and 1,3-diaminopropane added to binding buffer was changed was evaluated. Binding buffer was used for a reaction buffer.

| Compound | effect of amino compound on cleavage reaction [1] | effect of amino compound on cleavage reaction [2] | effect of amino compound on cleavage reaction of Cas12a (ratio of IDT reporter fluorescence to Hilyte488) ([3]; 2.0 mM, binding buffer and NEBuffer 2.1, 0.5% Tween 20 + 0.3% BSA or 1.5% Tween + 0.6% BSA, 1 nM target DNA) | effect on cleavage reaction with respect to ten types of reporter molecules ([3]; 2.0 mM, binding buffer, all reporter molecules of Table 1, FIG. 3B) | effect of facilitating the reaction ([3]; 7.8 mM (FIG. 5A) or 1.4 mM (FIGS. 5B and 5C), binding buffer, IDT reporter) | rising of fluorescence compared with no addition [3] | addition concentration at which an effect of facilitating the reaction was observed [3] [mM] | cleavage activity against the reporter molecule depending on timing of addition of amino compound ([3]; final 2.0 mM, conditions 1 to 6, binding buffer, FIGS. 9A to 9C) | effect of amino compound on cleavage reaction ([3]; spermine 2.0 mM, NEBuffer 2.1, various concentrations of Tween 20 and BSA, FIG. 2C) | change in the pH of binding buffer with addition concentration [4] |
| --- | --- | --- | --- | --- | --- | --- | --- | --- | --- | --- |
| NCCCNCCCCNCCCN [spermine] | the reaction was facilitated | the reaction was facilitated | facilitated the reaction | the effect of facilitating the reaction by addition of the amino compound was ascertained | a high effect of facilitating the reaction | the rising of fluorescence was reduced compared with the instance of no addition | ≤ 7.8 | higher under condition 2, condition 4, and condition 6 | the reaction was facilitated | the pH increased with increasing the addition concentration |
| Cl.Cl.Cl.NCCCCNCCCN [spermidine·3HCl, spermidine trihydrochloride] |  |  |  |  |  |  |  |  |  | the pH hardly changed |
| NCCCN [1,3-diaminopropane] |  |  |  |  |  |  |  |  |  | the pH increased with increasing the addition concentration |
| NCCCCNCCCN [spermidine] |  |  |  |  |  | the rising of fluorescence equivalent to that in the instance of no addition | ≥ 0.2 |  |  |  |
